The term Ki denotes the dissociation constant of the complex between target and ligand, obtained from inhibition or displacement.

In data set [1] the test system is ascites hepatoma Yoshida AH-130 cells inoculated into male Wistar rats. Briefly: AH-130 Yoshida hepatoma cancer cachexia rat model. To be noted: for survival / mortality (Kaplan Meier): low dose 0.2 mg/kg/day. An excerpt: Use of an ACE inhibitor blocks all activation of both the AT1 and AT2 receptors, therefore inhibiting the beneficial effects of angiotensin II mediated activation of the AT2 receptor.
The ascites hepatoma Yoshida AH-130 cells (10^8) were inoculated into approx. 200 g male Wistar rats. Alternatively animals received saline injection only (sham). The animals were housed in groups of three. The day after inoculation animals were randomized into various groups as described in the methods. […] The primary endpoints of the study included survival and quality of life. Secondary endpoints included body weight and body composition as well as organ weight, which were assessed at the end of the study (or after death).
The ascites hepatoma Yoshida AH-130 cells (10^8) were inoculated into approx. 200 g male Wistar rats. Alternatively animals received saline injection only (sham). The animals were housed in groups of three. The day after inoculation animals were randomized. […] The primary endpoints of the study included survival and quality of life. Secondary endpoints included body weight and body composition as well as organ weight, which were assessed at the end of the study (or after death).

The target in a further data set is AT1 receptor. To be noted: read-out: Ki for AT1 receptor; cited from earlier work.
Setting [2] is: 0.2 mg/kg/d, vs placebo, listed as Compound-21.
[3] abbreviates: 0.2 mg/kg/d, vs placebo, listed as compound-21.
[4] abbreviates: high dose 1.0 mg/kg/d, vs placebo, listed as Compound-21, 1 mg/kg/day.
[5] abbreviates: high dose 1.0 mg/kg/d, vs placebo, listed as compound-21, 1 mg/kg/day.

The structures appear in SMILES notation. Where only a bound is given, the exact number is not on record here.

With `CCOC(=O)[C@H](CCc1ccccc1)N[C@@H](C)C(=O)N1C(=O)N(C)C[C@H]1C(=O)O` [imidapril, reference compound], the “quality of life (activity and food intake)” value in data set [1] (imidapril) is “did not improve quality of life”. The “hazard ratio and survival” value in data set [1] (imidapril, compared to untreated tumor-bearing animals) is “worse hazard ratio and survival”. For the same compound, the body weight loss entry in data set [1] (imidapril, vs untreated tumor-bearing animals) was “dose-dependent reduction of body weight loss”.

For the compound `CCCCOC(=O)NS(=O)(=O)c1sc(CC(C)C)cc1-c1ccc(Cn2ccnc2)cc1` [Compound 21], in data set [1] (setting [2]), the “change in body weight during the experiment” value was “significantly reduced loss of body weight”, the “food intake on day 11 after tumor inoculation” value is on record as “significantly increased food intake”, the “heart weight at the end of the study” value was “significantly increased heart weight” and the “spontaneous locomotor activity on day 11 after tumor inoculation” value was “significantly increased activity”. For the same compound, in data set [1] (setting [2]), the “weight of brown adipose tissue (BAT) at the end of the study” value is “significantly increased BAT weight”, the “weight of the fast fiber type EDL at the end of the study” value (“weight of the fast fiber type EDL” below) is reported as “significantly increased EDL weight”, the “weight of the mixed fiber type gastrocnemius at the end of the study” value is listed as “significantly increased gastrocnemius weight” and the “weight of the slow fiber type soleus at the end of the study” value (“weight of the slow fiber type soleus” below) is “significantly increased soleus weight”. The “weight of white adipose tissue (WAT) epididymal fat at the end of the study” value in data set [1] (setting [2]) was “significantly increased WAT weight”. Further, in data set [1] (setting [3]), the “change in body weight during the experiment” value is on record as “attenuated”, the “food intake on day 11 after tumor inoculation” value is “significantly improved”, the “heart weight at the end of the study” value was “improved” and the “spontaneous locomotor activity on day 11 after tumor inoculation” value is given as “significantly improved”. In data set [1] (setting [3]), the “weight of brown adipose tissue (BAT) at the end of the study” value is listed as “improved”, the “weight of the fast fiber type EDL” value is on record as “higher compared to placebo”, the “weight of the mixed fiber type gastrocnemius at the end of the study” value was “higher compared to placebo” and the “weight of the slow fiber type soleus” value was “higher compared to placebo”. In addition, the “weight of white adipose tissue (WAT) epididymal fat at the end of the study” value in data set [1] (setting [3]) is “improved”. In data set [1] (setting [4]), the “weight of the fast fiber type EDL” value was “also improved EDL weight” and the “weight of the slow fiber type soleus” value is listed as “also improved soleus weight”. Besides, in data set [1] (setting [5]), the “weight of the fast fiber type EDL” value is “also improved” and the “weight of the slow fiber type soleus” value is “also improved”. Further, the “toxicity at higher dose” value in data set [1] (higher dose 1.0 mg/kg/d) is given as “toxic effects”. For the same compound, the “survival (Kaplan Meier)” value in data set [1] (higher dose 1.0 mg/kg/d, vs placebo) is reported as “not effective”. In addition, in data set [1] (vs placebo, listed as Compound-21, 0.2 mg/kg/day), the “survival / mortality (Kaplan Meier)” value is given as “significantly reduced mortality”. Also, the “survival / mortality (Kaplan Meier)” value in data set [1] (vs placebo, listed as compound-21, 0.2 mg/kg/day) is “significantly improved survival”. In addition, on AT1 receptor, the Ki was over 10 µM.

(Values after patent US10016397B2, “Selective AT2 receptor agonists for use in treatment of cachexia” (Charité-Universitaetsmedizin Berlin, priority 2013, dated 2018).)
